Data as given in paper PMC2927429, “Novel Naphthalene-Based Inhibitors of Trypanosoma brucei RNA Editing Ligase 1” (PLoS Neglected Tropical Diseases, 2010).
Like-named read-outs stand apart in the source and are kept apart here.

Biological target: T1, RNA editing ligase 1 (TbREL1) (Trypanosoma brucei, UniProt P86926)
T1 construct: gene REL1; recombinant full-length TbREL1, C-terminal TAP tag, Sf9 cells
T1 sequence (P86926 1-469): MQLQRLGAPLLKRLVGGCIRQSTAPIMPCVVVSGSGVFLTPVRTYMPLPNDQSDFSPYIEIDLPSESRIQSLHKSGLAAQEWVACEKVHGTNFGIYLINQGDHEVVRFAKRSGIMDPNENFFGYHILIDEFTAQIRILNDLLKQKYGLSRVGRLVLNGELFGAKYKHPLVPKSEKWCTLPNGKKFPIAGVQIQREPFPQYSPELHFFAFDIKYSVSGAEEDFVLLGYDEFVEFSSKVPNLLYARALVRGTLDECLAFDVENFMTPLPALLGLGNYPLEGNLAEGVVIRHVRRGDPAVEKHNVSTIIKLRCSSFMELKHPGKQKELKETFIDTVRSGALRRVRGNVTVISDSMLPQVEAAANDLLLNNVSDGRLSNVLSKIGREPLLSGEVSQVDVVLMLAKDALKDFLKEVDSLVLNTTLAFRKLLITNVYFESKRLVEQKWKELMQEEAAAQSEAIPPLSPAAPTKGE
Assay: inhibition of TbREL1 adenylylation with [α-32P]ATP, SDS/PAGE and phosphorimaging, […] Triton X-100
Format: biochemical

SMILES	IC50 (read-out: IC50) [nM]	IC50 [nM]
O=C(Nc1ccc2c(O)c(/N=N/c3ccc4c(O)cc(S(=O)(=O)O)cc4c3)c(S(=O)(=O)O)cc2c1)c1ccccc1 [V1, (E)-7-benzamido-4-hydroxy-3-((5-hydroxy-7-sulfonaphthalen-2-yl)diazenyl)naphthalene-2-sulfonic acid]	2160 ± 1200	
Nc1ccc2c(O)c(/N=N/c3ccc4c(O)cc(S(=O)(=O)O)cc4c3)c(S(=O)(=O)O)cc2c1 [V2, (E)-7-amino-4-hydroxy-3-((5-hydroxy-7-sulfonaphthalen-2-yl)diazenyl)naphthalene-2-sulfonic acid]	1530 ± 1170	
O=S(=O)(O)c1cc(O)c2ccc(Nc3ccc4c(O)cc(S(=O)(=O)O)cc4c3)cc2c1 [V3, Di-J acid]	8360 ± 1710	
O=S(=O)(O)c1cc(/N=N/c2c(O)ccc3ccccc23)c(O)c(/N=N/c2c(O)ccc3cc(S(=O)(=O)O)ccc23)c1 [V4, Mordant Black 25]		1590 ± 1100
